{"source": "patent US4112228A", "about": "“7-(D-α-Hydroxy-2-arylacetamido)-3-(2-carboxyalkyl-2,3-dihydro-s-tri azolo-[4,3-b]pyridazin-3-on-6-ylthiomethyl)-3-cephem-4-carboxylic acids and derivatives” (priority 1977, dated 1978)", "key": {"Pr. rettgeri": {"tested_on": "Pr. rettgeri", "experiment": "MIC by Steers' agar dilution method", "settings": "Providencia rettgeri"}, "Sal. enteritidis": {"tested_on": "Sal. enteritidis", "experiment": "MIC by Steers' agar dilution method", "settings": "Salmonella enterica"}, "bacteria of Table 4": {"tested_on": "bacteria of Table 4", "experiment": "Media effect on MIC (Nutrient, Mueller-Hinton, Heart-Infusion agar)", "format": "cell-based", "settings": "NA, MHA, HIA"}, "St. faecalis": {"tested_on": "St. faecalis", "experiment": "MIC by Steers' agar dilution method", "settings": "Enterococcus faecalis"}, "K. pneumoniae A9977": {"tested_on": "K. pneumoniae A9977", "experiment": "Standard experimental infection in mice", "format": "in vivo", "settings": "for ED50: Klebsiella pneumoniae, A9977, read-out: PD50"}, "Serr. marcescens": {"tested_on": "Serr. marcescens", "experiment": "MIC by Steers' agar dilution method", "settings": "Serratia marcescens"}, "Citrobacter sp.": {"tested_on": "Citrobacter sp.", "experiment": "MIC by Steers' agar dilution method"}, "D. pneumoniae": {"tested_on": "D. pneumoniae", "experiment": "MIC by Steers' agar dilution method"}, "Sal. typhosa": {"tested_on": "Sal. typhosa", "experiment": "MIC by Steers' agar dilution method", "format": "cell-based", "settings": "St-1; MHA; Table 3"}, "Pr. vulgaris": {"tested_on": "Pr. vulgaris", "experiment": "MIC by Steers' agar dilution method", "settings": "Proteus vulgaris"}}, "note": "Like-named read-outs stand apart in the source and are kept apart here."}
{"smiles": "Cn1nnnc1SCC1=C(C(=O)O)N2C(=O)[C@@H](NC(=O)[C@H](O)c3ccccc3)[C@H]2SC1", "note": "[Cefamandole, cefamandole, reference compound]", "values": [{"measurement": "MIC", "setting": "Pr. rettgeri; A15167, MHA, Table 1", "value": 0.2, "unit": "µg/mL"}, {"measurement": "MIC", "setting": "Pr. rettgeri; MHA, Example 10", "value": 0.4, "unit": "µg/mL"}, {"measurement": "MIC", "setting": "Pr. rettgeri; Pr-1 A15167, HIA, Table 4", "value": 0.1, "unit": "µg/mL"}, {"measurement": "MIC", "setting": "Pr. rettgeri; Pr-1 A15167, MHA, Table 3", "value": 0.2, "unit": "µg/mL"}, {"measurement": "MIC", "setting": "Pr. rettgeri; Pr-1 A15167, MHA, Table 4", "value": 0.2, "unit": "µg/mL"}, {"measurement": "MIC", "setting": "Pr. rettgeri; Pr-1 A15167, NA, Table 4", "value": 0.2, "unit": "µg/mL"}, {"measurement": "MIC", "setting": "Pr. rettgeri; Pr-2 A9637, MHA, Table 3", "value": 0.1, "unit": "µg/mL"}, {"measurement": "MIC", "setting": "Pr. rettgeri; Pr-4 A20645, MHA, Table 3", "value": 0.1, "unit": "µg/mL"}, {"measurement": "MIC", "setting": "Pr. rettgeri; Pr-5 A20915, MHA, Table 3", "value": 0.8, "unit": "µg/mL"}, {"measurement": "MIC", "setting": "Pr. rettgeri; Pr-6 A20920, MHA, Table 3", "value": 0.2, "unit": "µg/mL"}, {"measurement": "MIC", "setting": "Sal. enteritidis; A9531, MHA, Table 1", "value": 0.1, "unit": "µg/mL"}, {"measurement": "MIC", "setting": "Sal. enteritidis; MHA, Example 10", "value": 0.05, "unit": "µg/mL"}, {"measurement": "MIC", "setting": "Sal. enteritidis; Se-1 A9531, MHA, Table 3", "value": 0.2, "unit": "µg/mL"}, {"measurement": "Media effect on MIC", "setting": "bacteria of Table 4", "value": "little media effect"}, {"measurement": "MIC", "setting": "St. faecalis", "value": 50, "unit": "µg/mL"}, {"measurement": "MIC", "setting": "St. faecalis; MHA, Example 10", "value": "> 100", "unit": "µg/mL"}, {"measurement": "MIC", "setting": "St. faecalis; Sf-3 S. faecalis A9536, HIA, Table 4", "value": 100, "unit": "µg/mL"}, {"measurement": "MIC", "setting": "St. faecalis; Sf-3 S. faecalis A9536, MHA, Table 4", "value": 100, "unit": "µg/mL"}, {"measurement": "MIC", "setting": "St. faecalis; Sf-3 S. faecalis A9536, NA, Table 4", "value": "> 100", "unit": "µg/mL"}, {"measurement": "No. of survivors/No. tested", "setting": "K. pneumoniae A9977; 0.4 mg./kg., Table 6", "value": "0/5"}, {"measurement": "No. of survivors/No. tested", "setting": "K. pneumoniae A9977; 1.6 mg./kg., Table 6", "value": "0/5"}, {"measurement": "No. of survivors/No. tested", "setting": "K. pneumoniae A9977; 6.3 mg./kg., Table 6", "value": "1/5"}, {"measurement": "No. of survivors/No. tested", "setting": "K. pneumoniae A9977; 25 mg./kg., Table 6", "value": "5/5"}, {"measurement": "ED50", "setting": "K. pneumoniae A9977; Run C-805, 3×10^3 LD50, single sc", "value": 9.4, "unit": "mg/kg"}, {"measurement": "ED50", "setting": "K. pneumoniae A9977; Table 6", "value": 6.25, "unit": "mg/kg"}, {"measurement": "No. of survivors/No. tested", "setting": "K. pneumoniae A9977; Run C-805, 3×10^3 LD50, single sc, 0.4 mg./kg.", "value": "0/5"}, {"measurement": "No. of survivors/No. tested", "setting": "K. pneumoniae A9977; Run C-805, 3×10^3 LD50, single sc, 1.6 mg./kg.", "value": "0/5"}, {"measurement": "No. of survivors/No. tested", "setting": "K. pneumoniae A9977; Run C-805, 3×10^3 LD50, single sc, 6.3 mg./kg.", "value": "1/5"}, {"measurement": "No. of survivors/No. tested", "setting": "K. pneumoniae A9977; Run C-805, 3×10^3 LD50, single sc, 25 mg./kg.", "value": "5/5"}, {"measurement": "MIC", "setting": "Serr. marcescens; A20019, MHA, Table 1", "value": 100, "unit": "µg/mL"}, {"measurement": "MIC", "setting": "Serr. marcescens; MHA, Example 10", "value": 100, "unit": "µg/mL"}, {"measurement": "MIC", "setting": "Serr. marcescens; Sm-1 A20019 (β-lactamase), HIA, Table 4", "value": 50, "unit": "µg/mL"}, {"measurement": "MIC", "setting": "Serr. marcescens; Sm-1 A20019 (β-lactamase), MHA, Table 4", "value": 100, "unit": "µg/mL"}, {"measurement": "MIC", "setting": "Serr. marcescens; Sm-1 A20019 (β-lactamase), NA, Table 4", "value": 50, "unit": "µg/mL"}, {"measurement": "MIC", "setting": "Serr. marcescens; Sm-1 A20019, MHA, Table 3", "value": 25, "unit": "µg/mL"}, {"measurement": "MIC", "setting": "Serr. marcescens; Sm-2 A20335, MHA, Table 3", "value": 12.5, "unit": "µg/mL"}, {"measurement": "MIC", "setting": "Serr. marcescens; Sm-3 A20336, HIA, Table 4", "value": 50, "unit": "µg/mL"}, {"measurement": "MIC", "setting": "Serr. marcescens; Sm-3 A20336, MHA, Table 3", "value": 12.5, "unit": "µg/mL"}, {"measurement": "MIC", "setting": "Serr. marcescens; Sm-3 A20336, MHA, Table 4", "value": 100, "unit": "µg/mL"}, {"measurement": "MIC", "setting": "Serr. marcescens; Sm-3 A20336, NA, Table 4", "value": 50, "unit": "µg/mL"}, {"measurement": "MIC", "setting": "Serr. marcescens; Sm-4 A20442, MHA, Table 3", "value": 12.5, "unit": "µg/mL"}, {"measurement": "MIC", "setting": "Serr. marcescens; Sm-5 A20222, MHA, Table 3", "value": 12.5, "unit": "µg/mL"}, {"measurement": "MIC", "setting": "Serr. marcescens; Sm-6 A20460, MHA, Table 3", "value": 12.5, "unit": "µg/mL"}, {"measurement": "MIC", "setting": "Serr. marcescens; Sm-9 A20333, MHA, Table 3", "value": 50, "unit": "µg/mL"}, {"measurement": "MIC", "setting": "Serr. marcescens; Sm-10 A20334, MHA, Table 3", "value": 50, "unit": "µg/mL"}, {"measurement": "MIC", "setting": "Serr. marcescens; Sm-11 A20459, MHA, Table 3", "value": 25, "unit": "µg/mL"}, {"measurement": "MIC", "setting": "Serr. marcescens; Sm-12 A20461, MHA, Table 3", "value": 50, "unit": "µg/mL"}, {"measurement": "MIC", "setting": "Citrobacter sp.; Citrobacter", "value": 1.6, "unit": "µg/mL"}, {"measurement": "MIC", "setting": "Citrobacter sp.; Cx-2 A20694, MHA, Table 3", "value": 1.6, "unit": "µg/mL"}, {"measurement": "MIC", "setting": "Citrobacter sp.; Cx-3 A20695, MHA, Table 3", "value": 1.6, "unit": "µg/mL"}, {"measurement": "MIC", "setting": "D. pneumoniae; Dp-2 Type I Neufeld, MHA, Table 2", "value": 0.2, "unit": "µg/mL"}, {"measurement": "MIC", "setting": "D. pneumoniae; Dp-3 Type III, MHA, Table 2", "value": 0.2, "unit": "µg/mL"}, {"measurement": "MIC", "setting": "D. pneumoniae; Dp-4 A9585, MHA, Table 2", "value": 0.2, "unit": "µg/mL"}, {"measurement": "MIC", "setting": "D. pneumoniae; Dp-5 A15069, MHA, Table 2", "value": 0.2, "unit": "µg/mL"}, {"measurement": "MIC", "setting": "D. pneumoniae; Dp-6 A20167, MHA, Table 2", "value": 0.2, "unit": "µg/mL"}, {"measurement": "MIC", "setting": "D. pneumoniae; Dp-7 A20759, MHA, Table 2", "value": 0.2, "unit": "µg/mL"}, {"measurement": "MIC", "setting": "D. pneumoniae; Dp-8 A20769, MHA, Table 2", "value": 0.2, "unit": "µg/mL"}, {"measurement": "MIC", "setting": "D. pneumoniae; Dp-9 A20770, MHA, Table 2", "value": 0.2, "unit": "µg/mL"}, {"measurement": "MIC", "setting": "D. pneumoniae; Streptococcus pneumoniae", "value": 0.2, "unit": "µg/mL"}, {"measurement": "MIC", "setting": "Sal. typhosa", "value": 0.2, "unit": "µg/mL"}, {"measurement": "MIC", "setting": "Pr. vulgaris; A9436, MHA, Table 1", "value": 0.4, "unit": "µg/mL"}, {"measurement": "MIC", "setting": "Pr. vulgaris; A9699, MHA, Table 1", "value": 6.3, "unit": "µg/mL"}, {"measurement": "MIC", "setting": "Pr. vulgaris; ATCC9920, Pv-4 ATCC 9920, MHA, Table 3", "value": 0.2, "unit": "µg/mL"}, {"measurement": "MIC", "setting": "Pr. vulgaris; Pv-1 A9436, HIA, Table 4", "value": 0.4, "unit": "µg/mL"}, {"measurement": "MIC", "setting": "Pr. vulgaris; Pv-1 A9436, MHA, Table 3", "value": 0.8, "unit": "µg/mL"}, {"measurement": "MIC", "setting": "Pr. vulgaris; Pv-1 A9436, MHA, Table 4", "value": 0.4, "unit": "µg/mL"}, {"measurement": "MIC", "setting": "Pr. vulgaris; Pv-1 A9436, NA, Table 4", "value": 0.2, "unit": "µg/mL"}, {"measurement": "MIC", "setting": "Pr. vulgaris; Pv-2 A9526, MHA, Table 3", "value": 1.6, "unit": "µg/mL"}, {"measurement": "MIC", "setting": "Pr. vulgaris; Pv-3 A9699 (β-lactamase), HIA, Table 4", "value": 100, "unit": "µg/mL"}, {"measurement": "MIC", "setting": "Pr. vulgaris; Pv-3 A9699 (β-lactamase), MHA, Table 4", "value": 50, "unit": "µg/mL"}, {"measurement": "MIC", "setting": "Pr. vulgaris; Pv-3 A9699 (β-lactamase), NA, Table 4", "value": 6.3, "unit": "µg/mL"}, {"measurement": "MIC", "setting": "Pr. vulgaris; Pv-3 A9699, MHA, Table 3", "value": 50, "unit": "µg/mL"}, {"measurement": "MIC", "setting": "Pr. vulgaris; Pv-5 A9539, MHA, Table 3", "value": "> 100", "unit": "µg/mL"}, {"measurement": "MIC", "setting": "Pr. vulgaris; Pv-6 A9716, MHA, Table 3", "value": 0.8, "unit": "µg/mL"}, {"measurement": "MIC", "setting": "Pr. vulgaris; Pv-7 A21240, MHA, Table 3", "value": "> 100", "unit": "µg/mL"}, {"measurement": "MIC", "setting": "Pr. vulgaris; strain not given (1st of 2), MHA, Example 10", "value": 0.2, "unit": "µg/mL"}, {"measurement": "MIC", "setting": "Pr. vulgaris; strain not named (2nd of 2), MHA, Example 10", "value": 50, "unit": "µg/mL"}]}
